Each structure is given as a SMILES string. A value given as a limit tells only on which side of the number the result lay.

Assay [1] has as its system RAS-GTP in NCI-H1838 cells. As to the kind of experiment: RAS-GTP pulldown (Raf-RBD). The format is cell-based. The following applies: NCI-H1838 (NF1 LOF). Here is the method:
(§1) To determine the effects of small molecules on levels of activated RAS-GTPase, cell lines of interest were cultured under standard 2D culture conditions. Cells were seeded and following overnight incubation incubated at 37° C. with vehicle (DMSO) or test article(s). After an appropriate incubation period, cells were washed and cell lysis buffer added to prepare a cell lysate. The levels of Ras-GTP in the lysates were determined using affinity purification of a Raf-RBD (Ras binding domain of Raf)/GTP-Ras complex. In one approach, the Pierce Active Ras Pulldown and Detection Kit was used. Briefly, clarified lysates (500 μg total protein, quantified by BCA) were mixed with glutathione resin, which had been preincubated with GST-Raf-RBD. The mixture was vortexed and incubated at 4° C. for 1 hour with gentle rocking. The resin was washed three times with lysis buffer and bound Ras-GTP eluted by addition of 2× reducing sample buffer. Eluted proteins were separated by SDS-PAGE using a 4-15% Tris-glycine gel (BioRad). Proteins were transferred to a nitrocellulose membrane for western blot using an anti-Ras antibody (Thermofisher, 1:200) and a Licor IRDye-800 anti-mouse secondary antibody (1:20,000). The Licor Odyssey CLx was used for visualization.
as §1, with “resin” for “resin,”

The test system of assay [2] is NCI-H1373. The assay can be described thus: 3D cell viability (CTG). The class given is cell-based. As to conditions: Homo sapiens; NCI-H1373, KRAS G12C, 3D culture.
Description: To evaluate cell viability in 3D culture, cells in logarithmic growth phase were plated in growth medium containing 0.65% methylcellulose at an optimum seeding density. Cells were incubated overnight prior to treatment with different concentrations of the test article. Cells were cultured for an additional seven days and cell viability assessed using the CellTiterGlo™ (CTG) reagent, according to the manufacturer's instructions. In some instances, cells were grown in 3D culture as spheroids. Briefly, 2500 cells/well were seeded in round bottom ultra-low attachment 96-well plates (Corning) in growth media supplemented with 10% fetal bovine serum and 1% penicillin/streptomycin, and allowed to form spheroids for 72 hours at 37° C. in 5% CO2. […] Following drug exposure for five days, cell viability in spheroids was determined using the CellTiter-Glo assay kit. […] After one day in culture, cells were treated with the test article, which was then replenished every three days. Cells were maintained in culture for 10 days until the control wells reached confluency at which time the cells were fixed and stained with crystal violet.
The test system of assay [3] is SW948. The assay can be described thus: 3D cell viability (CTG). The format is cell-based. As to conditions: Homo sapiens; SW948, KRAS Q61L, 3D culture.
Description: (§3) To evaluate cell viability in 3D culture, cells in logarithmic growth phase were plated in growth medium containing 0.65% methylcellulose at an optimum seeding density. Cells were incubated overnight prior to treatment with different concentrations of the test article. Cells were cultured for an additional seven days and cell viability assessed using the CellTiterGlo™ (CTG) reagent, according to the manufacturer's instructions. In some instances, cells were grown in 3D culture as spheroids. Briefly, 2500 cells/well were seeded in round bottom ultra-low attachment 96-well plates (Corning) in growth media supplemented with 10% fetal bovine serum and 1% penicillin/streptomycin, and allowed to form spheroids for 72 hours at 37° C. in 5% CO2. […] Following drug exposure for five days, cell viability in spheroids was determined using the CellTiter-Glo assay kit.
For assay [4], the system named is SNU-601. As to the kind of experiment: 3D cell viability (CTG). The format is cell-based. The following applies: SNU-601, KRAS G12D, 3D culture.
Description: as §3
The test system of assay [5] is RAS-GTP in H358 cells. As to the kind of experiment: RAS-GTP pulldown (Raf-RBD). The class given is cell-based, human. The protocol: as §1, with “Eluted proteins were separated by SDS-PAGE using a 4-15% Tris-glycine gel (BioRad). Proteins were transferred to a nitrocellulose membrane for western blot using an anti-Ras antibody (Thermofisher, 1:200) and a Licor IRDye-800 anti-mouse secondary antibody (1:20,000). The Licor Odyssey CLx was used for visualization.” left out
To determine the effects of small molecules on levels of activated RAS-GTPase, cell lines of interest were cultured under standard 2D culture conditions. […] The levels of Ras-GTP in the lysates were determined using affinity purification of a Raf-RBD (Ras binding domain of Raf)/GTP-Ras complex. […] Briefly, clarified lysates (500 μg total protein, quantified by BCA) were mixed with glutathione resin which had been preincubated with GST-Raf-RBD. […]

In assay [6] the test system is KYSE-410. As to the kind of experiment: 3D cell viability (CTG). As to conditions: Homo sapiens; KYSE-410, KRAS G12C, 3D culture. The format is cell-based.
Description: as §3
The test system of assay [7] is MIAPaCa-2. As to the kind of experiment: 3D cell viability (CTG). The class given is cell-based. As to conditions: Homo sapiens, MIA PaCa-2; MIAPaCa-2, KRAS G12C, 3D culture.
Description: as §3
Assay [8] has as its system pERK in NCI-H1838 cells. The assay can be described thus: p-ERK AlphaLisa SureFire. The format is cell-based. As to conditions: for p-ERK: NCI-H1838 (NF1 LOF). The protocol:
(§2) Cells were plated at ˜20×10^3 cells per well and following overnight incubation were washed with serum-free media. Cells were then incubated for one hour with increasing concentrations of the test article in serum-free media containing 0.2% BSA prior to termination of the assay and measurement of pERK levels in cellular lysates by AlphaLisa SureFire Ultra kit conducted according to the manufacturer's instructions.

In assay [9] the test system is p-ERK1/2 in H358 cells. The assay can be described thus: p-ERK AlphaLisa SureFire. The class given is cell-based, human. As to conditions: H358 cells (KRAS G12C). Here is the method: as §2
(Alpha assays give light when donor and acceptor beads are brought close together.)

The subject of assay [10] is ASPC-1. The assay can be described thus: 3D cell viability (CTG). The format is cell-based. As to conditions: Homo sapiens, ASPC1; ASPC-1, KRAS G12D, 3D culture.
Description: as §3
In assay [11] the test system is Calu-6. The assay can be described thus: 3D cell viability (CTG). As to conditions: Homo sapiens; Calu-6, KRAS Q61K, 3D culture. The format is cell-based.
Description: as §3
For assay [12], the system named is SK-LU-1. The assay can be described thus: 3D cell viability (CTG). The following applies: Homo sapiens; SK-LU-1, KRAS G12D, 3D culture. The format is cell-based.
Description: as §3
The subject of assay [13] is pERK in HEK293 cells expressing SOS-F. The assay can be described thus: pERK analysis of HEK-293 SOS-WT and SOS-F. The following applies: inducible expression of SOS-F. The class given is cell-based. The text has this: N-terminally HA-tagged SOS-WT and SOS-F constructs were synthesized (Atum) and subcloned into the pcDNA5/FRT/TO vector (ThermoFisher) using the following primers: SOS1-HA-F or 5′-[…]-3′ (SEQ ID NO: 1), SOS1-HA-REV 5′-[…]-3′ (SEQ ID NO: 2), and SOS-F-HA-REV 5′-[…]-3′ (SEQ ID NO: 3). SOS-WT and SOS-F plasmids were co-transfected with the pOG44 Flp-recombinase expression vector (ThermoFisher) into the HEK Flp-In T-Rex 293 cell line according to the manufacturer's protocol. Transfected cells were selected in drug media (200 μg/mL hygromycin B, 15 μg/mL blastidicin) and expression of SOS constructs was verified by western blot (SOS-1: Cell Signaling Technologies #5890; HA: Sigma 11867423001).
30,000 HEK-293 cells per well were plated in 96-well plates in Biotin-free RPMI (Hyclone) supplemented with 0.1% fetal bovine serum, 0.02% bovine serum albumin and 1% penicillin/streptomycin. Expression of SOS1 constructs was induced by the addition 0.1 μg/mL doxycycline (Sigma) for 24 hours. […] For the final 5 minutes of drug treatment, cells were stimulated with 50 ng/mL EGF (Sigma), lysed and subjected to ERK1/2 phosphorylation analysis as described above.

Assay [14] deals with pERK in MeWo cells. As to the kind of experiment: p-ERK AlphaLisa SureFire. The class given is cell-based. Here is the method: as §2
For assay [15], the system named is pERK in NCI-H1666 cells. The assay can be described thus: p-ERK AlphaLisa SureFire. As to conditions: NCI-H1666 (Class III BRAF G466V/+). The format is cell-based. Here is the method: as §2
The test system of assay [16] is p-ERK1/2 in H1792 cells. The assay can be described thus: p-ERK AlphaLisa SureFire. The class given is cell-based. As to conditions: H1792 cells (KRAS G12C). The protocol:
as §2

Assay [17] has as its system pERK in A375 cells. As to the kind of experiment: p-ERK AlphaLisa SureFire. The class given is cell-based. As to conditions: A375 (Class I BRAF V600E). Here is the method:
as §2

Usually IC50 stands for the concentration needed to halve the response being measured. As for `Nc1nc(N2CCC3(CCC[C@H]3N)CC2)cnc1Sc1ccnc(Cl)c1Cl` [Compound A], the RAS-GTP levels entry in assay [1] is listed as “inhibited”. The “feedback-driven RAS-GTP accumulation” value in [1] (MEK inhibition by trametinib) is on record as “suppressed this effect”. The 50% inhibitory concentration (IC50) in assay [2] was 1.3 µM; in [3], greater than 10 µM; in assay [4], 2.9 µM; in [6], 0.1 µM; in assay [7] it was 0.3 µM; in [10] it was greater than 10 µM. For the same compound, the concentration for half-maximal inhibition (IC50) in [11] and in assay [12] was greater than 10 µM each time. The “Ras activation (levels of Ras-GTP)” value in assay [5] (H358 cells) is reported as “inhibited”. For the same compound, the p-ERK result in assay [8] is “potently inhibited”. Besides, the “inhibition of p-ERK1/2 levels” value in assay [9] is recorded as “concentration-dependent inhibition”.
Regarding `Cc1nc(N2CCC3(CC2)CO[C@@H](C)[C@H]3N)c(CO)nc1-c1cccc(Cl)c1Cl` [Compound B], the RAS-GTP levels entry in assay [1] is listed as “downregulation”. In [5] (H358 (KRAS G12C), 6 hour and 24 hour), the “RAS-GTP accumulation resulting from MEK inhibition by trametinib” value is “suppressed”. Also, in assay [13], the “sensitivity of pERK signaling to SHP2 inhibition” value is “insensitive”. The IC50 in assay [14] (Homo sapiens, MeWo, 1 h, read-out: geometric mean IC50 for reduction in pERK) turned out to be 0.024 µM; in [8] (Homo sapiens, NCI-H1838, 1 h, read-out: geometric mean IC50 for reduction in pERK), 0.029 µM. In assay [14] (MeWo (NF1 LOF)), the pERK result is “suppression”. Besides, the p-ERK entry in assay [8] is recorded as “suppression”. Besides, the values for the pERK levels entry in assay [15] and in assay [17] were “suppression” and “failed to suppress”, respectively. Besides, the “inhibition of p-ERK1/2 levels” value in assay [16] and in assay [9] was “concentration-dependent inhibition” in each case.

The record behind these values is patent publication US11596633B2, “SHP2 inhibitor compositions and methods for treating cancer” (Revolution Medicines, Inc., priority 2017, dated 2023).
